“And” between values parts separate entries of the source, which are not always exact repeats. Identical values can stand only once.
Columns and labels:
J774 cells [1] = assay: TNF-α, IFN-γ, IL-10 mRNA expression in J774 cells (real time PCR); format: cell-based, mouse; conditions: gentamicin 5 μg/ml, ASA 5 μg/ml or MIX (RJI-C 9 μg/ml + TB-KK 6 μg/ml) for 3 hours; Figure 3B
[2] = system: Staphylococcus epidermidis strains; assay: Antibiotic susceptibility, disk diffusion method on Mueller-Hinton agar; format: cell-based; conditions: all 10 Staphylococcus epidermidis strains
[3] = system: Staphylococcus epidermidis strains; assay: Antibacterial activity of AMPs (MIC100) and synergism (FIC index); format: cell-based; conditions: against Staphylococcus epidermidis strains, single agent
Description: (§1) Antibacterial activity of the peptides used in this work was evaluated as described previously. […] The fractional inhibitory concentration (FIC) index for combinations of two peptides was calculated according to the equation: FIC index = […] = A/MICA + B/MICB , where A and B are the MICs of drug A and drug B in the combination, MICA and MICB are the MICs of drug A and drug B alone, and FICA and FICB are the FICs of drug A and drug B. The FIC indices were interpreted as follows: ≤0.5, synergy; 0.51-4.0, no interaction; > 4.0, antagonism.

[4] = system: probiotics bacteria (Lactobacillus plantarum, Lactobacillus Paracasei, Bifidobacterium animalis); assay: Antibacterial activity against probiotics bacteria, overall statement; format: cell-based; conditions: MIX RJI-C 9 μg/ml + TB-KK 6 μg/ml; gentamicin 5 μg/ml
Description: The growth inhibition percentages of Staphylococcus epidermidis and probiotic strains were assessed under the same conditions.

[5] = system: Staphylococcus epidermidis (SE); conditions: mouse, in vivo, iv
[6] = system: SAA, haptoglobin, fibrinogen; assay: Acute phase proteins in blood of infected mice; format: in vivo, mouse
CD64 = conditions: mouse, in vivo
COX-2 = conditions: mouse, in vivo
[7] = system: Staphylococcus epidermidis (SE); conditions: mouse, in vivo, iv; remark: listed apart in the source
[8] = system: Staphylococcus epidermidis strains; assay: % inhibition of bacterial growth by the MIX and its components; format: cell-based; conditions: MIX = both
Description: as §1, with “antagonism. The growth inhibition percentages of Staphylococcus epidermidis and probiotic strains were assessed under the same conditions.” for “antagonism.”

J774 cells [9] = assay: Nitrite (NO2-) formation in J774 cells, Griess reaction; format: cell-based, mouse

CC(=O)Oc1ccccc1C(=O)O [ASA, acetylsalicylic acid]
induction of inflammation (TNF-α, IFN-γ, IL-10 mRNA) in J774 cells without LPS (J774 cells [1]): do not induce inflammation

C[C@H]1[C@H](NC(=O)/C(=N\OC(C)(C)C(=O)O)c2csc(N)n2)C(=O)N1S(=O)(=O)O [ATM30, aztreonam]
antibiotic resistance pattern, all strains [2]: resistant

Cc1onc(-c2ccccc2Cl)c1C(=O)N[C@@H]1C(=O)N2[C@@H]1SC(C)(C)[C@@H]2C(=O)O [CX1, cloxacillin]
antibiotic resistance pattern, all strains [2]: resistant

CNC(C)C1CCC(N)C(OC2C(N)CC(N)C(OC3OCC(C)(O)C(NC)C3O)C2O)O1 (stereo not drawn) [Gentamicin, gentamicin]
MIC ([3]; 10^5 CFU/well): 5 µg/mL | MIC ([3]; value in brackets): 10 µM | antibacterial activity against probiotics bacteria, in words [4]: killed the totality of the probiotics tested | induction of inflammation (TNF-α, IFN-γ, IL-10 mRNA) in J774 cells without LPS (J774 cells [1]): do not induce inflammation | bacterial load of kidneys and spleens [5]: decreased | SAA ([6]; 3h after treatment, blood of mice infected with Staphylococcus epidermidis, naive 6±0.8, control 17±0.6): 20 ± 0.8 mg/dL | SAA ([6]; 6h after treatment, control 19.1±0.5): 18.4 ± 1.2 mg/dL | Haptoglobin ([6]; 6h after treatment, control 329±55.2): 264 ± 58.3 mg/dL | SAA ([6]; 9h after treatment, control 21.7±0.9): 16 ± 0.7 mg/dL | Fibrinogen ([6]; mouse, in vivo): 340 ± 41.0 mg/dL and 385 ± 45.2 mg/dL and 364 ± 12.6 mg/dL | Haptoglobin ([6]; mouse, in vivo): 244 ± 42.5 mg/dL and 278 ± 42.9 mg/dL | SAA, haptoglobin and fibrinogen, in words ([6]; mouse, in vivo): within normal ranges | expression of the CD64 marker in blood (CD64): decreased expression of the CD64 marker | COX-2 expression level in kidney (COX-2): COX-2 expression level returned to the normal level nine hours after the treatment | infection status of kidneys and spleens eleven days after the infection [7]: still infected

C[C@@H](O)[C@H]1C(=O)N2C(C(=O)O)=C(SCCN=CN)C[C@H]12 [IPM10, imipenem]
antibiotic resistance pattern, all strains [2]: sensitive

Cc1ncc([N+](=O)[O-])n1CCO [M80, metronidazole]
antibiotic resistance pattern, all strains [2]: resistant

PFKIDIHLGGY-NH2 [RJI-C, analogue of the royal jellein I, chemically modified at the C terminal]
MIC100 ([3]; 10^5 CFU/well): 30 µg/mL | MIC ([3]; value in brackets): 24 µM | % inhibition of bacterial growth ([8]; strain 2/2, RJI-C 9 μg/ml, TB-KK 6 μg/ml): 18 ± 1% | % inhibition of bacterial growth ([8]; strain 3/28, RJI-C 9 μg/ml (7.3 μM), TB-KK 6 μg/ml (2.6 μM)): 17 ± 2% | % inhibition of bacterial growth ([8]; strain 5/6, RJI-C 9 μg/ml, TB-KK 6 μg/ml): 4 ± 3% | % inhibition of bacterial growth ([8]; strain 5/8, RJI-C 9 μg/ml, TB-KK 6 μg/ml): 12 ± 2% | % inhibition of bacterial growth ([8]; strain 5/25, RJI-C 9 μg/ml, TB-KK 6 μg/ml): 15 ± 1% | % inhibition of bacterial growth ([8]; strain 9/1, RJI-C 9 μg/ml, TB-KK 6 μg/ml): 18 ± 0% | % inhibition of bacterial growth ([8]; strain 10/28, RJI-C 9 μg/ml, TB-KK 6 μg/ml): 0% | % inhibition of bacterial growth ([8]; strain 12/14, RJI-C 9 μg/ml, TB-KK 6 μg/ml): 11 ± 0.5% | % inhibition of bacterial growth ([8]; strain 12/26, RJI-C 9 μg/ml, TB-KK 6 μg/ml): 19 ± 2% | NO2- synthesis in LPS-stimulated J774 cells, in words (J774 cells [9]): reduced NO2^- synthesis

bacitracin [B2]
antibiotic resistance pattern, all strains [2]: resistant

Source: publication PMC3526545, “New perspectives for natural antimicrobial peptides: application as antinflammatory drugs in a murine model” (BMC Immunology, 2012)
